Measurements from ChEMBL document CHEMBL6127088, “Novel 2-aminothiazole analogues both as polymyxin E synergist and antimicrobial agent against multidrug-resistant Gram-positive bacteria” (2024).
≈ marks a conversion by molar mass, not a printed value. Calls of active or inactive are those of the source. The calls are words filed in the database; no cut-off is given here.

Key:
Klebsiella pneumoniae [1] = experiment: Synergistic antibacterial activity against Klebsiella pneumoniae KPN 1617 assessed as fractional inhibitory concentration index at 4 microg/ml incubated for 18 to 20 hrs by chequerboard assay; type: functional; settings: dose 4 µg/ml; time 18-20 hrs
Acinetobacter baumannii [2] = experiment: Synergistic antibacterial activity against Acinetobacter baumannii ATCC 19606 infected in female Balb/c mouse model assessed as survival rate of mouse at 64 mg/kg, iv administered every 12 hrs in presence of polymyxin-E and measured for 7 days; type: functional
Acinetobacter baumannii [3] = experiment: Antibacterial activity against Acinetobacter baumannii ATCC 19606 assessed as inhibition of bacterial growth at 4 microg/ml incubated for overnight in presence of 0.25 microg/ml polymyxin-E and measured with in 8 hrs by time-kill assay; type: functional, organism-based; settings: dose 4.0 µg/ml
Pseudomonas aeruginosa [4] = experiment: Antibacterial activity against Pseudomonas aeruginosa PAE 1051 incubated for 18 hrs by broth microdilution method; type: functional
Enterococcus faecalis [5] = experiment: Antibacterial activity against Enterococcus faecalis ATCC 29212 assessed as inhibition of bacterial growth incubated for 18 hrs by broth microdilution method; type: functional
Pseudomonas aeruginosa [6] = experiment: Synergistic antibacterial activity against Pseudomonas aeruginosa PAE 3887 assessed as fractional inhibitory concentration index at 4 microg/ml incubated for 18 to 20 hrs by chequerboard assay; type: functional; settings: dose 4 µg/ml; time 18-20 hrs
Acinetobacter baumannii [7] = experiment: Synergistic antibacterial activity against Acinetobacter baumannii Ab 1611 assessed as fold change in polymyxin-E MIC incubated for 18 hrs by broth microdilution method relative to polymyxin-E alone; type: functional
Staphylococcus aureus [8] = experiment: Antibacterial activity against Staphylococcus aureus S1-1-33 assessed as inhibition of bacterial growth incubated for 18 hrs by broth microdilution method; type: functional
Listeria monocytogenes = experiment: Antibacterial activity against Listeria monocytogenes assessed as inhibition of bacterial growth incubated for 18 hrs by broth microdilution method; type: functional
[9] = tested on: Lacticaseibacillus rhamnosus; experiment: Antibacterial activity against Lactobacillus rhamnosus assessed as inhibition of bacterial growth incubated for 18 hrs by broth microdilution method; type: functional
Acinetobacter baumannii [10] = experiment: Antibacterial activity against Acinetobacter baumannii ATCC 19606 assessed as inhibition of bacterial growth at 4 microg/ml incubated for overnight in presence of 0.25 microg/ml polymyxin-E and measured at 24 hrs by time-kill assay; type: functional, organism-based; settings: dose 4.0 µg/ml
Cell membrane [11] = experiment: Disruption of cell membrane integrity in Acinetobacter baumannii ATCC 19606 assessed as displacement of outer membrane at 4 microg/ml incubated for 1 hrs by TEM analysis; type: subcellular; settings: dose 4.0 µg/ml
Bacillus subtilis = experiment: Antibacterial activity against Bacillus subtilis ATCC 6633 assessed as inhibition of bacterial growth incubated for 18 hrs by broth microdilution method; type: functional
Acinetobacter baumannii [12] = experiment: Synergistic antibacterial activity against Acinetobacter baumannii Ab 1613 assessed as fractional inhibitory concentration index at 4 microg/ml incubated for 18 to 20 hrs by chequerboard assay; type: functional; settings: dose 4 µg/ml; time 18-20 hrs
Acinetobacter baumannii [13] = experiment: Antibacterial activity against Acinetobacter baumannii ATCC 19606 assessed as inhibition of bacterial growth at 16 microg/ml incubated for overnight by time-kill assay; type: functional, organism-based; settings: dose 16.0 µg/ml
Staphylococcus aureus [14] = experiment: Antibacterial activity against methicillin-resistant Staphylococcus aureus ATCC 43300 assessed as inhibition of bacterial growth at 2 microg/ml measured after 24 hrs by time-kill assay; type: functional; set-up: scale not given: the % may be the effect or the level left; settings: dose 2 µg/ml
Cell membrane [15] = experiment: Disruption of cell membrane integrity in Acinetobacter baumannii ATCC 19606 assessed as reduction in nucleoid boundaries at 4 microg/ml incubated for 1 hrs in presence of polymyxin-E by TEM analysis; type: subcellular; set-up: scale not given: the % may be the effect or the level left; settings: dose 4.0 µg/ml
Staphylococcus aureus [16] = experiment: Antimicrobial activity against methicillin/ofloxacin-resistant Staphylococcus aureus ATCC 43300 assessed as minimum inhibitory concentration incubated for 18 hrs by broth microdilution method; type: functional
[17] = tested on: Mycolicibacterium smegmatis; experiment: Antibacterial activity against Mycobacterium smegmatis ATCC 704 assessed as inhibition of bacterial growth incubated for 18 hrs by broth microdilution method; type: functional
Klebsiella pneumoniae [18] = experiment: Antibacterial activity against Klebsiella pneumoniae KPN 943 incubated for 18 hrs by broth microdilution method; type: functional
Enterococcus faecalis [19] = experiment: Antimicrobial activity against vancomycin-resistant Enterococcus faecalis ATCC 51299 assessed as minimum inhibitory concentration incubated for 18 hrs by broth microdilution method; type: functional
[20] = tested on: Mycolicibacterium smegmatis; experiment: Antibacterial activity against Mycobacterium smegmatis MC 2155 assessed as inhibition of bacterial growth incubated for 18 hrs by broth microdilution method; type: functional
Staphylococcus aureus [21] = experiment: Antibacterial activity against Staphylococcus aureus S1-1-65 assessed as inhibition of bacterial growth incubated for 18 hrs by broth microdilution method; type: functional
Staphylococcus aureus [22] = experiment: Antibacterial activity against Staphylococcus aureus SF 8300 assessed as inhibition of bacterial growth incubated for 18 hrs by broth microdilution method; type: functional
Klebsiella pneumoniae [23] = experiment: Synergistic antibacterial activity against Klebsiella pneumoniae KPN 1617 assessed as polymyxin-E MIC at 4 microg/ml incubated for 18 hrs by broth microdilution method; type: functional; settings: dose 4 µg/ml
Acinetobacter baumannii [24] = experiment: Synergistic antibacterial activity against Acinetobacter baumannii Ab 1613 assessed as polymyxin-E MIC at 4 microg/ml incubated for 18 hrs by broth microdilution method; type: functional; settings: dose 4 µg/ml
Cell membrane [25] = experiment: Disruption of cell membrane integrity in Acinetobacter baumannii ATCC 19606 assessed as cytoplasmic content leakage at 4 microg/ml incubated for 1 hrs in presence of polymyxin-E by TEM analysis; type: subcellular; settings: dose 4.0 µg/ml
Pseudomonas aeruginosa [26] = experiment: Antibacterial activity against Pseudomonas aeruginosa PAE 3887 incubated for 18 hrs by broth microdilution method; type: functional
Acinetobacter baumannii [27] = experiment: Antimicrobial activity against Acinetobacter baumannii ATCC 19606 incubated for 18 hrs by broth microdilution method; type: functional
Klebsiella pneumoniae [28] = experiment: Synergistic antibacterial activity against Klebsiella pneumoniae SIPI-KPN-1712 assessed as polymyxin-E MIC at 4 microg/ml incubated for 18 hrs by broth microdilution method; type: functional; settings: dose 4 µg/ml
Staphylococcus aureus [29] = experiment: Antibacterial activity against methicillin-resistant Staphylococcus aureus ATCC 43300 assessed as inhibition of bacterial growth at 0.5 to 1 microg/ml measured between 8 to 24 hrs by time-kill assay; type: functional, organism-based; settings: dose 0.5-1 µg/ml, time 8-24 hrs
Acinetobacter baumannii [30] = experiment: Synergistic antibacterial activity against Acinetobacter baumannii ATCC 19606 assessed as fractional inhibitory concentration index at 4 microg/ml incubated for 18 to 20 hrs by chequerboard assay; type: functional; settings: dose 4 µg/ml; time 18-20 hrs
Klebsiella pneumoniae [31] = experiment: Synergistic antibacterial activity against Klebsiella pneumoniae KPN 943 assessed as fractional inhibitory concentration index at 4 microg/ml incubated for 18 to 20 hrs by chequerboard assay; type: functional; settings: dose 4 µg/ml; time 18-20 hrs
[32] = tested on: Lactiplantibacillus plantarum; experiment: Antibacterial activity against Lactobacillus plantarum assessed as inhibition of bacterial growth incubated for 18 hrs by broth microdilution method; type: functional
Pseudomonas aeruginosa [33] = experiment: Synergistic antibacterial activity against Pseudomonas aeruginosa PAE 1051 assessed as fold change in polymyxin-E MIC incubated for 18 hrs by broth microdilution method relative to polymyxin-E alone; type: functional
Klebsiella pneumoniae [34] = experiment: Synergistic antibacterial activity against Klebsiella pneumoniae KPN 1617 assessed as fold change in polymyxin-E MIC incubated for 18 hrs by broth microdilution method relative to polymyxin-E alone; type: functional
Pseudomonas aeruginosa [35] = experiment: Synergistic antibacterial activity against Pseudomonas aeruginosa PAE 1051 assessed as fractional inhibitory concentration index at 4 microg/ml incubated for 18 to 20 hrs by chequerboard assay; type: functional; settings: dose 4 µg/ml; time 18-20 hrs
Cell membrane [36] = experiment: Induction of outer membrane disruption in Acinetobacter baumannii ATCC 19606 assessed as decrease in fluorescence intensity in presence of polymyxin-E by NPN dye based fluorescence analysis; type: subcellular

SMILES: C/C(=N\Nc1ccccn1)c1csc(Nc2cc(F)cc(C(F)(F)F)c2)n1
- fractional inhibitory concentration index (FICI) (Klebsiella pneumoniae [1]): 0.094
- survival at 64 mg/kg (Acinetobacter baumannii [2]): 100%
- Activity (Acinetobacter baumannii [3]): Active
- MIC (Pseudomonas aeruginosa [4]): > 128 µg/mL
- MIC (Enterococcus faecalis [5]): 2 µg/mL (≈ 5.06 µM)
- fractional inhibitory concentration index (FICI) (Pseudomonas aeruginosa [6]): 0.094
- fold change (FC) (Acinetobacter baumannii [7]): 16
- MIC (Staphylococcus aureus [8]): 2 µg/mL (≈ 5.06 µM)
- MIC (Listeria monocytogenes): 4 µg/mL (≈ 10.1 µM)
- MIC [9]: 0.5 µg/mL (≈ 1.26 µM)
- Activity (Acinetobacter baumannii [10]): Active
- Activity (Cell membrane [11]): Active
- MIC (Bacillus subtilis): 2 µg/mL (≈ 5.06 µM)
- fractional inhibitory concentration index (FICI) (Acinetobacter baumannii [12]): 0.281
- Activity (Acinetobacter baumannii [13]): inactive
- Activity (Staphylococcus aureus [14]): 100%
- Activity (Cell membrane [15]): 100%
- MIC (Staphylococcus aureus [16]): 1 µg/mL (≈ 2.53 µM)
- MIC [17]: 1 µg/mL (≈ 2.53 µM)
- MIC (Klebsiella pneumoniae [18]): > 128 µg/mL
- MIC (Enterococcus faecalis [19]): 1 µg/mL (≈ 2.53 µM)
- MIC [20]: 1 µg/mL (≈ 2.53 µM)
- MIC (Staphylococcus aureus [21]): 4 µg/mL (≈ 10.1 µM)
- MIC (Staphylococcus aureus [22]): 1 µg/mL (≈ 2.53 µM)
- MIC (Klebsiella pneumoniae [23]): 0.5 µg/mL
- MIC (Acinetobacter baumannii [24]): 0.125 µg/mL
- Activity (Cell membrane [25]): Active
- MIC (Pseudomonas aeruginosa [26]): > 128 µg/mL
- MIC (Acinetobacter baumannii [27]): 128 µg/mL (≈ 324 µM)
- MIC (Klebsiella pneumoniae [28]): 2 µg/mL
- Activity (Staphylococcus aureus [29]): inactive
- fractional inhibitory concentration index (FICI) (Acinetobacter baumannii [30]): 0.094
- fractional inhibitory concentration index (FICI) (Klebsiella pneumoniae [31]): 0.062
- MIC [32]: 1 µg/mL (≈ 2.53 µM)
- fold change (FC) (Pseudomonas aeruginosa [33]): 4
- fold change (FC) (Klebsiella pneumoniae [34]): 16
- fractional inhibitory concentration index (FICI) (Pseudomonas aeruginosa [35]): 0.281
- Activity (Cell membrane [36]): Active
